Results taken from patent US9695155B2, “Herbicidal substituted pyrimidinyloxy benzene compounds” (E. I. DU PONT DE NEMOURS AND COMPANY, priority 2013, dated 2017).

What was measured:
[1] = test system: barnyardgrass; assay: Test C preemergence; type: in vivo, Echinochloa crus-galli; conditions: for Barnyardgrass plant response rating: preemergence; for Plant response rating, Barnyardgrass: Preemergence, scale 0 to 100, 0 no effect, 100 complete control
Outline: (§1)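 Preemergence: seeds sown in a loam soil–sand blend and sprayed with test chemical in a non-phytotoxic solvent mixture containing surfactant. Postemergence: plants at 2 to 18 cm (1- to 4-leaf stage) in peat-based medium, treated with the same formulation. Greenhouse 13 to 15 days, then visual rating 0 (no effect) to 100 (complete control).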

[2] = test system: blackgrass; assay: Test C preemergence; type: in vivo, Alopecurus myosuroides; conditions: for Blackgrass plant response rating: preemergence; for Plant response rating, Blackgrass: Preemergence, scale 0 to 100, 0 no effect, 100 complete control
Outline: as §1

[3] = test system: soybean; assay: Test C preemergence; type: in vivo, Glycine max; conditions: for Soybean plant response rating: preemergence; for Plant response rating, Soybean: Preemergence, scale 0 to 100, 0 no effect, 100 complete control
Outline: as §1

[4] = test system: morningglory; assay: Test A postemergence; type: in vivo, Ipomoea spp.; conditions: 0 to 100 scale where 0 is no effect and 100 is complete control; for Plant response rating, Morningglory: 500 g ai/ha; for Morningglory plant response rating: 125 g ai/ha
Outline: (§2)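 Compounds in non-phytotoxic solvent with surfactant applied as soil spray preemergence, or postemergence to plants 2-10 cm at one- to two-leaf stage, in loam/sand. After approximately 10 days in greenhouse, injury rated visually versus untreated controls, 0 (no effect) to 100 (complete control).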

[5] = test system: wheat; assay: Test A postemergence; type: in vivo, Triticum aestivum
Outline: as §2

[6] = test system: wheat, winter; assay: Test C preemergence; type: in vivo, Triticum aestivum; conditions: for Wheat plant response rating: preemergence; for Plant response rating, Wheat: Preemergence, scale 0 to 100, 0 no effect, 100 complete control
Outline: as §1

[7] = test system: large (Lg) crabgrass; assay: Test C preemergence; type: in vivo, Digitaria sanguinalis; conditions: for Crabgrass, Large plant response rating: preemergence; for Plant response rating, Crabgrass, Large: Preemergence, scale 0 to 100, 0 no effect, 100 complete control
Outline: as §1

[8] = test system: barnyardgrass; assay: Test A preemergence; type: in vivo, Echinochloa crus-galli; conditions: for Barnyardgrass plant response rating: 500 g ai/ha
Outline: as §2

[9] = test system: rice; assay: Test B flooded paddy test; type: in vivo, Oryza sativa; conditions: Flood, 250 g ai/ha; 0 to 100 scale where 0 is no effect and 100 is complete control
Outline: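 Plants were grown to the 2-leaf stage, then pots were flooded to 3 cm above the soil and compounds were applied directly into the paddy water. That depth was held throughout, and after 13 to 15 days in the greenhouse injury was rated visually against controls on a 0–100 scale (0 no effect, 100 complete control).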

[10] = 16 g ai/ha, scale 0 to 100 (0 no effect, 100 complete control)
[11] = 62 g ai/ha, scale 0 (no effect) to 100 (complete control)
[12] = 125 g ai/ha, scale 0 (no effect) to 100 (complete control)
[13] = 500 g ai/ha, 0 to 100 scale where 0 is no effect and 100 is complete control
[14] = 125 g ai/ha, 0 to 100 scale where 0 is no effect and 100 is complete control
[15] = 0 to 100 scale where 0 is no effect and 100 is complete control

SMILES	Barnyardgrass plant response rating [1, 10]	Barnyardgrass plant response rating [1, 11]	Barnyardgrass plant response rating [1, 12]	Plant response rating, Barnyardgrass ([1]; 31 g ai/ha)	Blackgrass plant response rating [2, 10]	Blackgrass plant response rating [2, 11]	Blackgrass plant response rating [2, 12]	Plant response rating, Blackgrass ([2]; 31 g ai/ha)	Soybean plant response rating [3, 10]	Soybean plant response rating [3, 11]	Soybean plant response rating [3, 12]	Plant response rating, Morningglory [4]	Plant response rating, Wheat [5, 13]	Wheat plant response rating [6, 10]	Wheat plant response rating [6, 11]	Wheat plant response rating [6, 12]	Crabgrass, Large plant response rating [7, 10]	Crabgrass, Large plant response rating [7, 11]	Crabgrass, Large plant response rating [7, 12]	Plant response rating, Rice [9]	further results
Fc1cnc(Oc2cccc(C(F)F)c2-n2cc(Br)cn2)nc1 [Compound 112]	0	30	90	5	0	40	95	30	10	50	95	100	70	0	0	10	35	100	100	0	Plant response rating, Soybean ([3]; 31 g ai/ha): 35; Plant response rating, Wheat ([6]; 31 g ai/ha): 0; Plant response rating, Crabgrass, Large ([7]; 31 g ai/ha): 100; Plant response rating, Barnyardgrass [8, 14]: 70; Barnyardgrass plant response rating ([8]; 0 to 100 scale, 0 no effect, 100 complete control, approx. 10 days): 100
Fc1cccc(Oc2ncc(Cl)cn2)c1-n1cc(I)cn1 [Compound 179]	5	90	100	10	0	40	90	50	0	45	65	100	60	0	0	5	55	98	100	0	Morningglory plant response rating [4]: 70; Wheat plant response rating [5, 14]: 30; Plant response rating, Crabgrass, Large ([7]; 31 g ai/ha): 90; Plant response rating, Barnyardgrass [8, 14]: 20; Barnyardgrass plant response rating [8, 15]: 100
CCOc1cnn(-c2ccccc2Oc2ncc(Cl)cn2)c1 [Compound 187]	5		90		0		100		5		85	100	60	0		0	5		100	0	Plant response rating, Barnyardgrass ([1]; 62 g ai/ha): 65; Plant response rating, Blackgrass ([2]; 62 g ai/ha): 30; Plant response rating, Soybean ([3]; 62 g ai/ha): 55; Morningglory plant response rating [4]: 70; Wheat plant response rating [5, 14]: 20; Plant response rating, Wheat ([6]; 62 g ai/ha): 0; Plant response rating, Crabgrass, Large ([7]; 62 g ai/ha): 100; Barnyardgrass plant response rating (0 to 100 scale, 0 is no effect, 100 is complete control) ([8]; 125 g ai/ha): 80; Barnyardgrass plant response rating [8, 15]: 100
Fc1cccc(Oc2ncc(Cl)cn2)c1-n1cc(OCC(F)(F)F)cn1 [Compound 270]	0		100		0		95		0		85			0		5	50		100	0	Plant response rating, Barnyardgrass ([1]; 62 g ai/ha): 90; Plant response rating, Blackgrass ([2]; 62 g ai/ha): 70; Plant response rating, Soybean ([3]; 62 g ai/ha): 25; Plant response rating, Wheat ([5]; 31 g ai/ha, 0 to 100 scale, 0 no effect, 100 complete control): 0; Plant response rating, Wheat ([5]; 125 g ai/ha, 0 to 100 scale, 0 no effect, 100 complete control): 30; Plant response rating, Wheat ([6]; 62 g ai/ha): 0; Plant response rating, Crabgrass, Large ([7]; 62 g ai/ha): 100; Plant response rating, Barnyardgrass ([8]; 31 g ai/ha, 0 to 100 scale where 0 is no effect and 100 is complete control, visual, approximately 10 days): 20; Barnyardgrass plant response rating (0 to 100 scale, 0 is no effect, 100 is complete control) ([8]; 125 g ai/ha): 100
